Reference: patent publication US20060228412A1, “(-)-Hydroxycitric acid for delaying gastric emptying” (priority 2003, published 2006)

What was measured:
[1] = at the end of 80 days; cited from earlier work
[2] = test system: [3H]-5-HT uptake; settings: isolated rat brain cortical slices; cited from earlier work
[3] = cited from earlier work
[4] = mice on a 10% sucrose diet; cited from earlier work
[5] = Capsaicin-HCA interaction satiety test; type: in vivo, human; settings: 5 individuals, approximately 2 grams in water about an hour before a meal; before red pepper sauce
Text: The meal itself began with a soup course. […] At this point, bottles of red pepper sauce were supplied and the sauce was applied liberally. […] As is true of Example 3, this provides indirect evidence that HCA acts upon a CCK-related mechanism in inducing satiety.

[6] = Blood glucose after HCA meal replacement releasing only in the small intestine; type: in vivo, human
Text: In Example 1, the HCA was delivered in an immediate-release preparation. Our unexpected findings with regard to blood sugar led to the hypothesis that a relatively large dose of HCA might affect blood sugar levels in an individual whose blood sugar is in the low normal range. A dose of 1.5 grams HCA derived from potassium HCA and delivered in a special coated form designed to bypass interaction with stomach acids and to release only in the higher pH of the small intestine was used. A potassium HCA salt granulate was prepared according to Example 1 found in U.S. Pat. No. 6,447,807 and delivered via a dry powdered meal replacement designed to be mixed with liquid to provide 1.5 grams of HCA per 350 calories plain (mixed with water) or approximately 500 calories with milk. […] The subject ate a 500 calorie breakfast consisting the experimental HCA meal replacement. Two hours after this meal, subject's blood glucose level had dropped to 77 mg/dL. […] This finding seemed paradoxical in that the outstanding metabolic effect, which might be thought to indicate blood levels of the drug, was not matched by even a normal level of feelings of fullness. This implied that at least part of the satiation induced by HCA comes about prior to entry of the compound into the blood. […]

[7] = Immediacy of HCA-induced satiety, lemonade-like drinks prior to a meal; type: in vivo, human; settings: 5 individuals, approximately 2 grams in sweetened lemonade-like drinks, 16-24 ounces, about 200 calories
Protocol: To test this theory, and the palatability of an HCA salt when mixed with various flavors, a study was conducted in which 5 individuals consumed approximately 2 grams potassium HCA mixed in sweetened lemonade-like drinks prior to a meal. Consumption of the drinks took place over the course of approximately one half hour and involved 16-24 ounces of fluid, but only about 200 calories.

[8] = Multi-week pilot open clinical weight loss trial with extremely obese patients; type: in vivo, human
Text: In the present studies, data on human usage emerged from a multi-week pilot open clinical weight loss trial with extremely obese patients which was undertaken to gauge the effects of a pouch delivery form of a potassium salt of HCA under the normal circumstances faced in clinical practice with this patient population. Sixteen patients were enrolled, three of whom were diabetics on medications and several others who were suspected of suffering from insulin resistance. The patients ingested 3-4 grams of HCA (in the form of the potassium salt) per day in two divided doses. Aside from being informed that they must eat a carbohydrate-containing meal within one hour of taking the HCA and that they should avoid eating late in the day, they were not instructed to follow any special diet or exercise plan outside their normal habits and no caloric restriction was imposed. This particular form of potassium HCA delivery typically was mixed into water or juice and consumed at mid-morning and mid-afternoon. The delivery was a water-soluble immediate release form. It was a pre-commercial preparation and nearly all of the patients complained regarding the inconvenience and poor taste of the product, albeit there were no other issues of tolerability.
A number of patients continued on the program for 6 weeks. However, most patient data was good for only 3 weeks because two of the diagnosed diabetics experienced severe hypoglycemic reactions. […] Two patients subsequently were placed on phentermine. […] The average weight loss over the 3 week period for these 14 patients was approximately 3.1 pounds per person per week. […] At therapeutically effective dosages, HCA probably should be used with diabetic populations only under a physician's care.

Row | SMILES | Net reduction in food intake compared with controls [1] [%] | Reduction in weight gain [1] [%] | [3H]-5-HT uptake [2] | Reduction in food consumption ([3]; experimental animals fed a high-sugar diet, single large oral dose or two divided oral doses) [%] | Minimum effective dose, once per day ([3]; oral, once per day) [mmol/kg] | Minimum effective dose, twice per day ([3]; oral, twice per day) [mmol/kg] | Leptin/white adipose tissue ratio compared with control [4] | Serum insulin compared with control [4] | Serum leptin compared with control [4] | Feeling of fullness [5] | Anorectic action / feelings of fullness ([6]; delivery to the small intestine, by-passing the stomach) | Blood glucose level ([6]; two hours after 500 calorie meal with 1.5 grams HCA, coated form released in small intestine, fasting level before 85 mg/dL, one subject) [mg/dL] | Satiety [7] | Average weight loss ([8]; 3 week period, 14 patients, 3-4 grams HCA per day in two divided doses, immediate release pouch form) | Blood pressure ([8]; eight patients with hypertension) | Effect on blood sugar in diabetics ([8]; immediate release format, two diagnosed diabetics had severe hypoglycemic reactions) | Weight loss of one patient ([8]; over 10 weeks) [pounds] | Appetite suppression ([8]; several patients)
1 | O=C(O)CC(O)(C(=O)O)C(O)C(=O)O (single isomer, unassigned; (-)) [HCA, (−)-hydroxycitric acid] | 4 | 78 | inhibit | ≥ 10 | 2.63 | 0.33 | lower | lower | lower |  |  |  |  |  |  |  |  | 
2 | O=C([O-])CC(O)(C(=O)[O-])C(O)C(=O)[O-].[K+].[K+].[K+] (stereo not drawn) [potassium HCA] |  |  |  |  |  |  |  |  |  | felt full very soon | blunt the anorectic actions | 77 | satiated soon after the meal began | approximately 3.1 pounds per person per week | normalize blood pressure | strong hypoglycemic effect | 32 | good appetite suppression
